Measured values taken from PubChem BioAssay (NCI).
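The compound was tested at five concentrations on cells cultured in 96-well plates, with a 48-hour exposure period. At the GI50, growth is halved. TGI: concentration producing complete growth inhibition.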

Assays:
Test in all cases: NCI anticancer screen, dose series, 48 h
[1] = test system: LXFL 529 NSCLC
[2] = test system: SNB-78 CNS
[3] = test system: DMS 273 small cell lung
[4] = test system: RXF-631 renal
[5] = test system: DU-145 prostate
[6] = test system: MDA-N
[7] = test system: HS 578T breast
[8] = test system: XF 498 CNS

SMILES	TGI [1] [µM]	TGI [3] [µM]	TGI [5] [µM]	TGI [7] [µM]	GI50 [7] [µM]	other results
CC(=O)[O][Hg][c]1s[c]([Hg][O]C(C)=O)[c]([Hg][O]C(C)=O)[c]1[Hg][O]C(C)=O	9.72	> 100	–	–	–	GI50 [1]: 1.79 µM; GI50 [2]: 1.42 µM; GI50 [3]: 3.6 µM
Cc1ccc(C)c(NC(=O)C(=O)Nn2c(=S)[nH]c3ccccc3c2=O)c1	> 100	> 100	–	–	–	TGI [2]: > 100 µM; TGI [4]: > 100 µM
O/N=C1\C(=C\c2ccc3c(c2)OCCO3)CCCC1C(NO)c1ccc2c(c1)OCCO2 (stereo not given)	62.7	43	–	–	–	TGI [2]: > 100 µM; TGI [4]: > 100 µM
O=C1CC2OCC=C3CN4CCC5(C(=O)O)C(N1)C2C3CC45 (stereo not given)	–	–	> 100	> 100	–	TGI [6]: > 100 µM
CC1OC(=O)N2CCC=CC12 (stereo not given)	> 100	> 100	–	–	–	TGI [2]: > 100 µM; TGI [8]: > 100 µM; TGI [4]: > 100 µM
C=Cc1cc(OC)c2c(c1)c(=O)oc1c2cc(OC)c2c(O)ccc(C3OC(C(C)O)C(O)C3O)c21 (stereo not given)	–	–	–	0.0617	0.0191	–
COc1ccc(/C=C/C(=O)c2ccc(Nc3nc(Nc4ccc(F)cc4)nc(Nc4ccc(F)cc4)n3)cc2)cc1	–	–	> 100	59.6	14.4	GI50 [5]: 40.2 µM
Nc1ccn(C2CC3OCC3O2)c(=O)n1 (stereo not given)	–	–	> 100	> 100	–	TGI [6]: > 100 µM
CC(C)OP(=O)(OC(C)C)/C(C#N)=C/c1c[nH]c2ccccc12	–	–	> 100	> 100	–	TGI [6]: > 100 µM
COc1cc([C@@H]2c3cc4c(cc3[C@@H](NCc3cccc(F)c3)C3COC(=O)[C@@H]32)OCO4)cc(OC)c1O (stereo not given in full)	> 65	14.3	–	–	–	TGI [2]: 57.7 µM
NC1=C(O)C(=O)C(c2c[nH]c3ccc(OCc4ccccc4)cc23)O1 (stereo not given)	–	–	> 100	> 100	–	TGI [6]: > 100 µM
Cc1nc(-n2nc(-c3ccccc3)cc2-c2ccccc2)sc1C(=O)/C=C/c1cccc([N+](=O)[O-])c1	–	83.1	–	–	–	TGI [2]: > 100 µM
Cc1c(C2CCSc3ccccc3N2)sc2ccccc12 (stereo not given)	–	–	> 100	> 100	–	TGI [6]: > 100 µM
CCOc1ccccc1NC(=O)C1=C(C)NC(C)=C(C(=O)Nc2ccccc2OCC)C1c1cccc([N+](=O)[O-])c1	> 100	> 100	–	–	–	TGI [2]: > 100 µM; TGI [8]: > 100 µM
O=[N+]([O-])c1ccc2nc(-c3ccc(Cl)cc3)[nH]c2c1	–	–	60.5	71.7	–	TGI [6]: 51.1 µM
CCCC(=O)OC(OC(=O)CCC)c1ccc([N+](=O)[O-])o1	–	–	> 100	> 100	–	TGI [6]: 46.3 µM
O=C1C=CC(=O)c2c(O)c(N(CCCl)CCCl)c(Cl)c(O)c21	–	–	> 10	> 10	–	TGI [6]: 5.79 µM
O=C(N/C(=C\c1ccc(F)cc1)c1nc2ccccc2[nH]1)c1ccccc1	> 100	–	–	–	–	TGI [2]: > 100 µM; TGI [8]: > 100 µM; TGI [4]: > 100 µM
Cc1ccc([N+]2=NC(c3ccccc3)=NN(c3ccccc3)C2)cc1	> 100	> 100	–	–	–	TGI [8]: > 100 µM

SMILES	TGI [1] [µM]	TGI [3] [µM]	TGI [5] [µM]	TGI [7] [µM]	GI50 [7] [µM]	other results
CNC(=O)c1cc(-c2ccc(F)cc2)cc(-c2ccc(S(=O)(=O)N3CCCC3)cc2)c1N	–	–	> 25	> 25	> 11.1	GI50 [5]: > 25 µM
CN1C/C(=C\c2ccc(C(=O)O)cc2)C(=O)/C(=C/c2ccc(C(=O)O)cc2)C1	> 100	> 100	–	–	–	TGI [2]: > 100 µM; TGI [8]: > 100 µM; TGI [4]: > 100 µM
COC(=O)C(C)Oc1ccc(O)cc1 (stereo not given)	> 100	> 100	–	–	–	TGI [2]: > 100 µM; TGI [4]: > 100 µM
CCN(CC)CCNc1ccc([N+](=O)[O-])c2nc3ccc(OC)cc3c(N)c12	–	–	3.07	2.89	–	TGI [6]: 3.26 µM
COc1ccc2c(c1)C=CC1C2CC[C@]2(C)C(NC(=O)/C=C/c3ccc(O)c(O)c3)CCC12 (stereo not given in full)	–	–	39.6	> 100	27.2	GI50 [5]: 16.1 µM
C[C@@H]1Cc2c(ccc3[nH]ncc23)[C@@H](c2ccc(NC3CN(CCCF)C3)cn2)N1CC(F)(F)F	–	–	> 100	41	15	GI50 [5]: 35.2 µM
Cc1nc2sc(C(=O)Nc3ccccc3)c(N)c2cc1C(=O)c1ccccc1	–	–	> 50	> 50	2.47	GI50 [5]: 1.73 µM
N/C(CC(=O)NOC(=O)c1ccccc1)=N/OC(=O)c1ccccc1	–	–	> 100	> 100	–	TGI [6]: > 100 µM
COC(=O)[C@@H](C)C[C@H](Cc1ccccc1)NC(=O)c1csc([C@@H](C[C@H](C(C)C)N(C)C(=O)[C@@H](NC(=O)[C@H]2CCCCN2C)C(C(F)(F)F)C(F)(F)F)OC(C)=O)n1	–	–	> 16.7	15.4	0.047	GI50 [5]: 0.047 µM
COC(=O)C(/C(=N\O)C(=O)Nc1ccc(Br)cc1)c1nc2ccccc2[nH]c1=O (stereo not given)	80.5	> 100	–	–	–	TGI [2]: > 100 µM; TGI [4]: > 100 µM
O=C(/C=C/c1ccc(Cl)cc1Cl)c1ccc(Cl)cc1Cl	–	–	> 100	58.2	20.1	GI50 [5]: 29.5 µM
c1ccc(-c2cc3n4c(-c5ccccc5)nn(-c5ccccc5)c4cnc-3n2)cc1	–	–	–	> 50	9.62	–
N=C1C=C(N)C(=O)c2ccccc21	–	–	0.345	–	0.353	GI50 [5]: 0.191 µM
CN(C)Cc1cc(C(C)(C)C)cc(CN(C)C)c1O	–	–	> 100	> 100	–	TGI [6]: > 100 µM
CS(=O)(=O)CCNCc1ccoc1-c1ccc2ncnc(Nc3ccc(OCc4ccccc4)cc3)c2c1	–	–	> 25	> 25	2.28	GI50 [5]: > 25 µM
CCOC(=O)N(O)c1ccc(/C=C/c2ccccc2)cc1	–	–	> 88.6	> 100	29.4	GI50 [5]: 11.2 µM
CC(CC(=O)Nc1ccc(NC(=O)CC(C)N=NC(N)=O)cc1)N=NC(N)=O (stereo not given)	> 100	> 100	–	–	–	TGI [8]: > 100 µM
CC[C@@H](C(=O)[C@@H](C)[C@@H](O)[C@H](C)[C@@H]1O[C@@H]([C@@H](CC)C(=O)O)CC[C@@H]1C)[C@H]1O[C@]2(C=C[C@@H](O)[C@]3(CC[C@@](C)([C@H]4CC[C@](O)(CC)[C@H](C)O4)O3)O2)[C@H](C)C[C@@H]1C	–	–	28.5	36.1	0.914	GI50 [5]: 1.71 µM
